# Laboratory results published in patent US20100203084A1, “METHOD FOR TREATING PAIN OR OPIOID DEPENDENCE USING A SPECIFIC TYPE OF NON-OPIOID AGENT IN COMBINATION WITH A SELECTIVE EXCITATORY-OPIOID-RECEPTOR INACTIVATOR” (priority 2006, published 2010).
# “Also recorded” adds a separate entry of the source.
# Key:
# [1] = tested on: Swiss-Webster mice; details: mouse, in vivo
# [2] = tested on: rodents; details: high doses, administered immediately after training, rodents (ref. 20); cited from earlier work
# [3] = tested on: chronic morphine-dependent mice; experiment: naloxone-precipitated withdrawal hyperalgesia in chronic morphine-dependent mice (tail-flick); details: naltrexone 0.1 ng/kg with naloxone, FIG. 9
# [4] = tested on: rodents and humans; details: moderately low doses (˜1 μg/kg), rodents and humans (refs. 20-22); cited from earlier work
# [5] = several species, including rat and human (ref. 20); cited from earlier work
smiles,measurement,setting,value
"NC(CCC(=O)O)C(=O)O (racemic) [glutamic acid, dl-glutamic acid]","duration of hyperalgesia, glutamic acid alone",[1],> 6 h
same,"effect on tail-flick latencies, glutamic acid alone",[1],long-lasting hyperalgesia
"CC(C)Cn1c(=O)n(C)c(=O)c2[nH]cnc21 [IBMX, 3-isobutyl-1-methylxanthine]","duration of hyperalgesia, IBMX alone",[1],> 3 h
same,"effect on tail-flick latencies, IBMX alone",[1],long-lasting hyperalgesia
same,effect on memory in passive avoidance tasks,[2],improve memory
"N[C@@H](CCC(=O)O)C(=O)[O-].[Na+] [MSG, monosodium glutamate]","effect on tail-flick latencies, MSG alone, 10-fold-higher dose",[1],evokes hyperalgesia
same,"effect on tail-flick latencies, MSG alone, lower dose",[1],does not evoke significant hyperalgesia
"CN[C@H](CC(=O)O)C(=O)O [NMDA, N-methyl-D-aspartate]","duration of hyperalgesia, NMDA alone",[1],> 5 h
same,"effect on tail-flick latencies, NMDA alone",[1],decreases in tail-flick latencies (indicating hyperalgesia)
"O=C1CC[C@@]2(O)[C@H]3Cc4ccc(O)c5c4[C@@]2(CCN3CC2CC2)[C@H]1O5 [NTX, naltrexone]",effect of cotreatment with 1 pg/kg rolipram in normal mice,[1],"prominent, long-lasting analgesia"
same,effect of delayed high-dose NTX on analgesia from rolipram 1 μg/kg plus CTX-B,[1],rapidly blocked
same,effect of delayed much higher dose of NTX in MSG + NTX cotreated mice,[1],blocked both hyperalgesia and analgesia
same,effect of high-dose NTX on analgesia from glutamic acid cotreatment,[1],rapid attenuation of the initially prominent analgesia
same,effect of high-dose NTX on analgesia from non-narcotic cotreatment,[1],antagonized rapidly
same,effect of second dose of NTX alone 24 h after initial cotreatment with rolipram 1 μg/kg,[1],evoked significant analgesia
same,effect of second injection of high-dose NTX on NMDA-evoked hyperalgesia and NMDA+NTX analgesia,[1],rapid attenuation of the initially prominent hyperalgesia
same,effect of ultra-low-dose NTX co-administered with thousand- to million-fold lower dose of rolipram,[1],"remarkable degree of opioid receptor-mediated, long-lasting analgesia"
same,"effect of ultra-low-dose NTX cotreatment on hyperalgesia evoked by glutamate, NMDA, IBMX or rolipram",[1],"rapidly blocked and reversed to prominent, long-lasting analgesia"
same,"effect on tail-flick latencies, cotreatment with 1 mg/kg NMDA",[1],"blocked NMDA-evoked hyperalgesia, and resulted in prominent analgesia"
same,"effect on tail-flick latencies, cotreatment with 1 mg/kg glutamic acid",[1],"blocked glutamic-acid-evoked hyperalgesia, and resulted in prominent analgesia"
same,"effect on tail-flick latencies, cotreatment with 10 mg/kg IBMX, high-dose NTX",[1],"not only blocked IBMX-evoked hyperalgesia, but also blocked onset of analgesia during the first hour after dosing"
same,"effect on tail-flick latencies, cotreatment with MSG 1 mg/kg",[1],Prominent analgesia
same,"effect on tail-flick latencies, cotreatment with rolipram 1 pg/kg",[1],remarkably similar degree of analgesia
same,"effect on tail-flick latencies, cotreatment with rolipram 1 μg/kg",[1],results in prominent analgesia
same,"effect on tail-flick latencies, inactivator alone (control)",[1],no alterations in tail-flick latencies
same,"effect on tail-flick latencies, cotreatment with 10 mg/kg IBMX, ultra-low-dose NTX",[1]; sc,"blocked IBMX-evoked hyperalgesia, and resulted in prominent analgesia"
same,"effect on tail-flick latencies, cotreatment with 10-fold-higher dose of MSG",[1]; sc,Prominent analgesia
same,effect of ultra-low-dose naltrexone cotreatment on naloxone-precipitated withdrawal hyperalgesia,[3],rapidly converted to analgesia
C[C@H](NC(=O)[C@@H](CC(=O)NO)Cc1ccccc1)C(=O)O [kelatorphan],effect of kelatorphan on analgesic response to 1 pg/kg rolipram plus 0.1 ng/kg NTX,[1],prolongs the duration of the analgesic response
same,"effect on baseline tail-flick latency, kelatorphan alone",[1],does not alter baseline tail-flick latency
same,"effect on tail-flick latencies, kelatorphan 0.1 mg/kg cotreatment with rolipram 1 pg/kg",[1],prominent analgesia
same,"effect on tail-flick latencies, kelatorphan 1 mg/kg cotreatment with rolipram 1 pg/kg",[1],elicits prominent analgesia
"Oc1ccc2c3c1O[C@H]1c4[nH]c5c(c4C[C@@]4(O)[C@@H](C2)N(CC2CC2)CC[C@]314)C[C@@]1(O)[C@H]2Cc3ccc(O)c4c3[C@@]1(CCN2CC1CC1)[C@H]5O4 [nor-BNI, nor-binaltorphimine]","effect on tail-flick latencies, ultra-low-dose mu- or kappa-opioid receptor antagonist cotreatment with rolipram",[1],larger magnitude of analgesia
CCOC(=O)C1=C[C@@H](OC(CC)CC)[C@H](NC(C)=O)[C@@H](N)C1 [oseltamivir],effect of cotreatment with 1 pg/kg rolipram in normal mice,[1],"prominent, long-lasting analgesia"
COc1ccc(C2CNC(=O)C2)cc1OC1CCCC1 (stereo not drawn) [rolipram],"effect on tail-flick latencies, rolipram alone, 1 pg/kg",[1],no detectable hyperalgesic effect; also recorded: does not alter baseline tail-flick latency
same,"effect on tail-flick latencies, rolipram alone, 1 μg/kg",[1],acute hyperalgesic effects
same,persistence of effect of a single low dose of rolipram,[1],still effective for more than one day
same,effect on memory in passive avoidance tasks,[2],improve memory
same,adverse side-effects,[4],relatively moderate adverse side-effects
same,effect on memory behavior,[4],significant enhancement in memory behavior
same,absorption after oral administration,[5],absorbed fully and rapidly
"COC(=O)/C=C/C(=O)N[C@@H]1CC[C@@]2(O)[C@H]3Cc4ccc(O)c5c4[C@@]2(CCN3CC2CC2)[C@H]1O5 [β-FNA, β-funaltrexamine]","effect on tail-flick latencies, ultra-low-dose mu- or kappa-opioid receptor antagonist cotreatment with rolipram",[1],block the acute hyperalgesic effects of rolipram and result in prominent analgesia
